Measurements as given in the CheMixHub drug solubility set.

Test: xn = mol fraction of the nth substance listed, in the solute-free solvent

Cc1ccc(Nc2nccc(N(C)c3ccc4c(C)n(C)nc4c3)n2)cc1S(N)(=O)=O + CC#N + CC(C)O
solubility (g/100 g solution)
Settings | 288.15 K | 293.15 K | 298.15 K | 303.15 K | 308.15 K | 313.15 K | 318.15 K | 323.15 K | 328.15 K
x2 = 0.2679 | 0.00834 | 0.0123 | 0.0162 | 0.0208 | 0.0257 | 0.0311 | 0.0374 | 0.0456 | 0.0557
x2 = 0.4939 | 0.0116 | 0.0198 | 0.0273 | 0.0362 | 0.0457 | 0.0552 | 0.0651 | 0.0758 | 0.0876
x2 = 0.6871 | 0.0161 | 0.0249 | 0.0344 | 0.0445 | 0.0553 | 0.0662 | 0.079 | 0.0943 | 0.113
x2 = 0.8541 | 0.0119 | 0.0172 | 0.0243 | 0.0311 | 0.0393 | 0.0478 | 0.0563 | 0.0666 | 0.0803

O=C1NS(=O)(=O)c2ccccc21 + CC#N + CC(C)O
solubility (g/100 g solution)
Settings | x2 = 0.0998 | x2 = 0.2002 | x2 = 0.2999 | x2 = 0.3996 | x2 = 0.5004 | x2 = 0.5997 | x2 = 0.7001 | x2 = 0.7997 | x2 = 0.8996
293.15 K | 4.08 | 5.79 | 7.19 | 8.27 | 8.87 | 8.79 | 8.19 | 7 | 5.08
298.15 K | 4.75 | 6.64 | 8.05 | 9.07 | 9.79 | 9.66 | 8.97 | 7.68 | 5.75
303.15 K | 5.49 | 7.5 | 9.3 | 10.4 | 11.2 | 10.8 | 10.1 | 8.77 | 6.38
308.15 K | 6.33 | 8.56 | 10.5 | 11.7 | 12.3 | 12.3 | 11.5 | 9.73 | 7.32
313.15 K | 7.35 | 10 | 12.1 | 13.4 | 14.2 | 14.1 | 13.1 | 11.2 | 8.37
318.15 K | 8.79 | 11.8 | 14.1 | 15.5 | 16.3 | 16.2 | 15.1 | 12.9 | 9.59
323.15 K | 10.3 | 13.5 | 16 | 17.6 | 18.3 | 18 | 16.8 | 14.3 | 10.7

Cc1ccc(Nc2nccc(N(C)c3ccc4c(C)n(C)nc4c3)n2)cc1S(N)(=O)=O + CC#N + CCCCO
solubility (g/100 g solution)
Settings | 288.15 K | 293.15 K | 298.15 K | 303.15 K | 308.15 K | 313.15 K | 318.15 K | 323.15 K | 328.15 K
x2 = 0.311 | 0.00876 | 0.015 | 0.0216 | 0.0293 | 0.0367 | 0.0447 | 0.0534 | 0.0638 | 0.0746
x2 = 0.5462 | 0.0159 | 0.0251 | 0.0355 | 0.0464 | 0.0592 | 0.0722 | 0.0852 | 0.1 | 0.117
x2 = 0.7303 | 0.0138 | 0.0237 | 0.0349 | 0.047 | 0.0614 | 0.0758 | 0.0904 | 0.107 | 0.126
x2 = 0.8784 | 0.0109 | 0.0167 | 0.0237 | 0.0316 | 0.0398 | 0.05 | 0.0607 | 0.0728 | 0.0871

Cc1ccc(Nc2nccc(N(C)c3ccc4c(C)n(C)nc4c3)n2)cc1S(N)(=O)=O + CC#N + CCCO
solubility (g/100 g solution)
Settings | 288.15 K | 293.15 K | 298.15 K | 303.15 K | 308.15 K | 313.15 K | 318.15 K | 323.15 K | 328.15 K
x2 = 0.2679 | 0.0118 | 0.0186 | 0.0265 | 0.0356 | 0.0456 | 0.0555 | 0.066 | 0.0779 | 0.0924
x2 = 0.4939 | 0.0196 | 0.031 | 0.0432 | 0.057 | 0.0716 | 0.0875 | 0.104 | 0.123 | 0.145
x2 = 0.6871 | 0.0177 | 0.0276 | 0.0399 | 0.0523 | 0.0687 | 0.0849 | 0.102 | 0.12 | 0.143
x2 = 0.8541 | 0.0117 | 0.0175 | 0.0245 | 0.0326 | 0.0408 | 0.0514 | 0.0625 | 0.075 | 0.0903
